Data reported in paper PMC11852235, “Discovery of Effective Inhibitors Against Phosphodiesterase 9, a Potential Therapeutic Target of Alzheimer’s Disease with Antioxidant Capacities” (Antioxidants, 2025).
Where “and” joins values, the source holds several entries; their conditions need not be identical. Identical values can stand only once. Like-named read-outs stand apart in the source and are kept apart here.

Tests used:
[1] = target: T1, PDE9 (catalytic domain of PDE9A2) (Homo sapiens, UniProt O76083); assay: Enzymatic assay against PDE9 (3H-cGMP hydrolysis, scintillation counting); format: biochemical; conditions: for inhibition at 0.01 µM: at a concentration of 0.01 μM
T1 construct: PDE9 recombinant catalytic domain (amino acid 181–506); made in house; host or cells: E. coli BL21 (Codonplus)
T1 sequence (O76083 241-566): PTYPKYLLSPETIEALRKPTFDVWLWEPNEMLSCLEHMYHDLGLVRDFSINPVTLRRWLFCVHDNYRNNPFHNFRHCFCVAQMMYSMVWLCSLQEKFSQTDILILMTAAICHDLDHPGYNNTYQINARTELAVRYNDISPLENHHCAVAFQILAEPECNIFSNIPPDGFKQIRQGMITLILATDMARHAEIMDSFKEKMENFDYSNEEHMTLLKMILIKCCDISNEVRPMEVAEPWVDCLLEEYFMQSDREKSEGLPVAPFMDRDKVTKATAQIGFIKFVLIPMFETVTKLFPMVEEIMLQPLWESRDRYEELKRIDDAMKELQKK
Description: In brief, E. coli strain BL21 (Codonplus), which carrying with recombinant pET-PDE9A2 plasmid, was grown in LB medium (containing 100 μg/mL ampicillin and 0.4% glucose) at 37 °C until an OD600 achieved 0.6–0.8. Then, the temperature was turned down to 15 °C, and 0.1 mM iso-propyl-b-D-thiogalactopyranoside was added to LB medium to induce the expression of PDE9A2 protein. Bacteria were induced for 20 h and collected for purified PDE9A2 recombinant protein by a Ni-NTA column (Qiagen, Venlo, The Netherlands).
As for the enzymatic assays, ^3H-cGMP (20,000–30,000 cpm, GE Healthcare), the substrate for enzymatic assays against PDE9A2, were diluted in an assay buffer (containing 50 mM Tris-HCl (pH 8.0), 10 mM MgCl2, and 1 mM DTT). And then, the substrate ^3H-cGMP, catalytic domain of PDE9A2, and different concentrations of tested compounds were incubated at room temperature for 15 min. To terminate the reaction, 0.2 M ZnSO4 and 0.2 N Ba(OH)2 were added to the mixture, leaving unreacted ^3H-cGMP in the supernatant. […] Each compound was measured at a minimum of eight concentrations for the IC50 calculation and repeated at least three times.
4.Enzymatic assays against PDE9
The assay buffer contains 50 mM Tris-HCl (pH 8.0), 10 mM MgCl2 or 4 mM MnCl2, 1 mM DTT, and 10-20 nM 3H-cGMP (15000−30000 cpm/assay, CPM control). The reaction was carried out at room temperature for 15 min and then terminated by addition of 0.2 M ZnSO4. The reaction product 3H-GMP was precipitated out by […], whereas unreacted 3H-cGMP remained in the supernatant. The radioactivity in the supernatant was measured in 2.5 […]
(CPMenzyme). For the measurement of IC50 of inhibitors, at least seven concentrations of inhibitors were used in the presence of 3H-cGMP. The enzyme concentration in a range of 10− 100 ng/mL, which hydrolyzed 50- 70% of the substrate, was chosen for each inhibitory assay. The radioactivity was recorded as CPMinhibitor. The IC50 values for PDE9 were calculated using a nonlinear regression analysis.
Inhibition = […] × 100%

[2] = Antioxidant activity, ORAC-FL method; conditions: Trolox as standard
Description: The modified Oxygen Radical Absorbance Capacity Fluorescein (ORAC-FL) method was used for antioxidant activity test. In brief, the mixture of test compounds (20 μL) and fluorescein (120 μL, final concentration of 150 nM) was added into a black 96-well plate and incubated for 15 min at 37 °C. Then, 60 μL of 2,2′-azobis(2-amidinopropane) dihydrochloride (AAPH) solution (12 mM) was added rapidly to induce the reaction. The fluorescence with an excitation wavelength of 485 nm and emission at 535 nm was measured in Spectrafluor Plus plate reader (Tecan, Crailsheim, Germany) every minute for 4 h. Integration of the area under the curve (AUC) was […] 1 to 8 μM Trolox was used as a standard. Each compound was tested at 1–10 μM at least in three independent assays. The ORAC-FL values of each compound were calculated according to Equation (1) and expressed as Trolox equivalents.(1) ORAC-FL value=AUCsample−AUCblank/AUCTrolox−AUCblank×ConcentrationTrolox/Concentrationsample

[3] = 0.25 h, read-out: Inhibition ratio against PDE9
[4] = 0.25 h, at a concentration of 0.1 μM, read-out: Inhibition ratio against PDE9
[5] = 100 nM, read-out: Inhibition (PDE9 dose-response, single runs)
[6] = 200 nM, read-out: Inhibition (PDE9 dose-response, single runs)
[7] = 400 nM, read-out: Inhibition (PDE9 dose-response, single runs)
[8] = 800 nM, read-out: Inhibition (PDE9 dose-response, single runs)
[9] = 1600 nM, read-out: Inhibition (PDE9 dose-response, single runs)
[10] = 6.25 nM, read-out: Inhibition (PDE9 dose-response, single runs)
[11] = 25 nM, read-out: Inhibition (PDE9 dose-response, single runs)
[12] = 50 nM, read-out: Inhibition (PDE9 dose-response, single runs)

Compound	inhibition at 0.01 µM [1, 3] [%]	inhibition at 0.1 µM [1, 4] [%]	ORAC [2]	IC50 [1]	Inhibition (PDE9 dose-response, single runs) ([1]; 6.25 nM, 0.00625 µM)	Inhibition (PDE9 dose-response, single runs) ([1]; 12.5 nM, 0.0125 µM)	Inhibition (PDE9 dose-response, single runs) ([1]; 25 nM, 0.025 µM)	Inhibition (PDE9 dose-response, single runs) ([1]; 50 nM, 0.05 µM)	Inhibition (PDE9 dose-response, single runs) ([1]; 100 nM, 0.1 µM) [%]	inhibition at 0.1 µM [1, 5] [%]	Inhibition (PDE9 dose-response, single runs) ([1]; 200 nM, 0.2 µM) [%]	inhibition at 0.2 µM [1, 6] [%]	Inhibition (PDE9 dose-response, single runs) ([1]; 400 nM, 0.4 µM) [%]	inhibition at 0.4 µM [1, 7] [%]	Inhibition (PDE9 dose-response, single runs) ([1]; 800 nM, 0.8 µM) [%]	inhibition at 0.8 µM [1, 8] [%]	Inhibition (PDE9 dose-response, single runs) ([1]; 1600 nM, 1.6 µM) [%]	inhibition at 1.6 µM [1, 9] [%]	further results
CC(CC1CNc2ccccc21)Nc1nc2c(cnn2C2CCCC2)c(=O)[nH]1 (centres unmarked) [Compound 17f, 1-cyclopentyl-6-((1-(indolin-3-yl)propan-2-yl)amino)-1,5-dihydro-4H-pyrazolo[3,4-d]pyrimidin-4-one]	59	67	0.66 ± 0.04 μmol of Trolox equiv/μmol tested compound																
C[C@@H](NCc1c[nH]c2ccc(F)cc12)c1nc2c(cnn2C2CCCC2)c(=O)[nH]1 [Compound 18b, (R)-1-cyclopentyl-6-(1-(((5-fluoro-1H-indol-3-yl)methyl)amino)ethyl)-1,5-dihydro-4H-pyrazolo[3,4-d]pyrimidin-4-one]	61	76	0.88 ± 0.08 μmol of Trolox equiv/μmol tested compound																
CC(CCc1c[nH]c2ccccc12)Nc1nc2c(cnn2C2CCCC2)c(=O)[nH]1 (centres unmarked) [Compound 17e, 6-((4-(1H-indol-3-yl)butan-2-yl)amino)-1-cyclopentyl-1,5-dihydro-4H-pyrazolo[3,4-d]pyrimidin-4-one]	67	83	0.33 ± 0.002 μmol of Trolox equiv/μmol tested compound																
COc1ccc2[nH]nc(CN[C@H](C)c3nc4c(cnn4C4CCCC4)c(=O)[nH]3)c2c1 [Compound 18f, (R)-1-cyclopentyl-6-(1-(((5-methoxy-1H-indazol-3-yl)methyl)amino)ethyl)-1,5-dihydro-4H-pyrazolo[3,4-d]pyrimidin-4-one]		< 30	0.24 ± 0.02 μmol of Trolox equiv/μmol tested compound																
COc1ccc2[nH]cc(CN[C@H](C)c3nc4c(cnn4C4CCCC4)c(=O)[nH]3)c2c1 [Compound 18c, (R)-1-cyclopentyl-6-(1-(((5-methoxy-1H-indol-3-yl)methyl)amino)ethyl)-1,5-dihydro-4H-pyrazolo[3,4-d]pyrimidin-4-one]		< 30		194 nM	-0.81% and -1.99%	4.63% and -3.63%	-0.82% and 5.95%	-1.13% and 3.15%	16.13	9.05	51.73	42.9	69.38	75.3	80.02	90.6	87.34	90.2	
O=c1[nH]c(NCCc2c[nH]c3ccc(O)cc23)nc2c1cnn2C1CCCC1 [Compound 17b, 1-cyclopentyl-6-((2-(5-hydroxy-1H-indol-3-yl)ethyl)amino)-1,5-dihydro-4H-pyrazolo[3,4-d]pyrimidin-4-one]	16			91.1 nM and 91 nM	9.16%	9.23% and 4.22%	21.21%	34.04%	49.42	55.3	66.06	67.7	76.31	82.6	86.82	90.6	94.94	95.1	inhibition at 0.00625 µM [1, 10]: 6.08%; inhibition at 0.025 µM [1, 11]: 24.1%; inhibition at 0.05 µM [1, 12]: 36.3%
COc1ccc2c(c1)c(CN[C@H](C)c1nc3c(cnn3C3CCCC3)c(=O)[nH]1)cn2C [Compound 18d, (R)-1-cyclopentyl-6-(1-(((5-methoxy-1-methyl-1H-indol-3-yl)methyl)amino)ethyl)-1,5-dihydro-4H-pyrazolo[3,4-d]pyrimidin-4-one]				214 nM															Inhibition (PDE9 dose-response, single runs) ([1]; 6.4875 nM, 0.0064875 µM): 4.86% and 1.81%; Inhibition (PDE9 dose-response, single runs) ([1]; 12.975 nM, 0.012975 µM): 9.60%; inhibition at 0.012975 µM ([1]; 12.975 nM, read-out: Inhibition (PDE9 dose-response, single runs)): 4.99%; Inhibition (PDE9 dose-response, single runs) ([1]; 25.95 nM, 0.02595 µM): 11.54%; inhibition at 0.02595 µM ([1]; 25.95 nM, read-out: Inhibition (PDE9 dose-response, single runs)): 16.6%; Inhibition (PDE9 dose-response, single runs) ([1]; 51.9 nM, 0.0519 µM): 21.64%; inhibition at 0.0519 µM ([1]; 51.9 nM, read-out: Inhibition (PDE9 dose-response, single runs)): 20.2%; Inhibition (PDE9 dose-response, single runs) ([1]; 103.8 nM, 0.1038 µM): 34.81%; inhibition at 0.1038 µM ([1]; 103.8 nM, read-out: Inhibition (PDE9 dose-response, single runs)): 33.4%; Inhibition (PDE9 dose-response, single runs) ([1]; 207.6 nM, 0.2076 µM): 49.32%; inhibition at 0.2076 µM ([1]; 207.6 nM, read-out: Inhibition (PDE9 dose-response, single runs)): 54.3%; Inhibition (PDE9 dose-response, single runs) ([1]; 415.2 nM, 0.4152 µM): 80.76%; inhibition at 0.4152 µM ([1]; 415.2 nM, read-out: Inhibition (PDE9 dose-response, single runs)): 86.5%; Inhibition (PDE9 dose-response, single runs) ([1]; 830.4 nM, 0.8304 µM): 88.96%; inhibition at 0.8304 µM ([1]; 830.4 nM, read-out: Inhibition (PDE9 dose-response, single runs)): 93%
C[C@@H](NCc1n[nH]c2ccccc12)c1nc2c(cnn2C2CCCC2)c(=O)[nH]1 [Compound 18e, (R)-6-(1-(((1H-indazol-3-yl)methyl)amino)ethyl)-1-cyclopentyl-1,5-dihydro-4H-pyrazolo[3,4-d]pyrimidin-4-one]		~50	0.15 ± 0.03 μmol of Trolox equiv/μmol tested compound																
COc1ccc2[nH]cc(CC(C)Nc3nc4c(cnn4C4CCOCC4)c(=O)[nH]3)c2c1 (centres unmarked) [Compound 17d, 6-((1-(5-methoxy-1H-indol-3-yl)propan-2-yl)amino)-1-(tetrahydro-2H-pyran-4-yl)-1,5-dihydro-4H-pyrazolo[3,4-d]pyrimidin-4-one]	13			89 nM	13.00%	26.71%	28.77%	37.79%	60.91	61.6	75.64	77.6	87.67	90.5	94.30	96.4	97.54	108	inhibition at 0.00625 µM [1, 10]: 13.8%; inhibition at 0.0125 µM ([1]; 12.5 nM, read-out: Inhibition (PDE9 dose-response, single runs)): 34.7%; inhibition at 0.025 µM [1, 11]: 26.4%; inhibition at 0.05 µM [1, 12]: 43.8%
COc1ccc2[nH]cc(CC(C)Nc3nc4c(cnn4C4CCCC4)c(=O)[nH]3)c2c1 (centres unmarked) [Compound 17c, 1-cyclopentyl-6-((1-(5-methoxy-1H-indol-3-yl)propan-2-yl)amino)-1,5-dihydro-4H-pyrazolo[3,4-d]pyrimidin-4-one]	84			1.8 nM															
